Experimental data published in US20200276150A1, “PARENTERAL FORMULATIONS OF MACROLIDE ANTIBIOTICS” (Tetard, Inc., priority 2010, published 2020).
In brackets after ≈: the same amount, converted by molar mass. Entries after “also recorded” stand apart in the source; their conditions may differ.

Assays:
[1] = QT effects of CEM-101 (statement, no method); settings: compared to other macrolides and ketolides
[2] = CEM-101 in 60 mM tartaric acid with and without 0.9% NaCl, concentration by HPLC (Examples 3A, 3B); assay type: physicochemical
Description: EXAMPLE 3A. […] On addition of NaCl, the resultant solution went clear on mixing for an hour (53.0 mg/mL by HPLC). […] EXAMPLE 3B. Compositions of CEM-101 in an Unbuffered Solution for Parenteral Administration and Studies in 0.9% NaCl solution (˜8% w/v CEM-101). Approximately 90 mg CEM-101 was dissolved in 1 mL 60 mM tartaric acid pH 2.16 and allowed to mix overnight.

[3] = Saturated solubility of CEM-101 in a range of vehicles (Example 5); assay type: physicochemical; settings: for solubility at 72 h: thermodynamic from solid, mixed 72 hours, HPLC
Description: EXAMPLE 5. Solubility of CEM-101 in a Range of Vehicles. […] Additional CEM-101 is added to vehicles which completely solubilized the CEM-101 API within 24 hours. Samples are allowed to mix for a total of 72 hours. Once mixed, the samples are assessed visually, centrifuged and then diluted to appropriate concentration for analysis by HPLC to determine saturated solubility. Without being bound by theory, it is believed herein that the vehicles are in situ salt forming compounds when mixed with CEM-101. Studies were conducted by weighing approximately 1000 mg of each vehicle into a number of vials. A known amount of CEM-101 was then added into each vial and the resulting mixture was mixed on a vortex prior to mixing overnight on a roller mixer.

[4] = Cardiac tissue levels of CEM-101 (statement, no method); settings: compared to other macrolides and ketolides
[5] = test system: azithromycin-resistant strains; assay: Antibacterial activity compared with azithromycin (statement, no method); assay type: cell-based
[6] = IV administration to dogs, observation for pain response (Example 11); assay type: in vivo, Beagle dogs (Canis familiaris); settings: IV infusion about 90 minutes, 5, 10, 15 mg/kg/d
Description: EXAMPLE 11. Pharmacokinetics (PK) in dogs following IV administration. […] The plasma level of CEM-101 and toxicokinetics at 0-24 hours is measured (jugular venipuncture, predose, then immediately following completion of infusion at 0, 0.5, 1, 4, 8, and 24 hours). Animal body weight is also periodically measured. […] Total dose volume is 15 mL/kg, and intravenous infusion is carried out over about 90 minutes (10 mL/kg/h) via disposable indwelling catheter into one of the cephalic and/or saphenous veins. Vein or vein location is changed at least every seven days. Control animals receive vehicle alone. An illustrative formulation is CEM-101 in the following vehicle comprising or consisting essentially of L(+)-tartaric acid, D-mannitol, SWFI, 1N HaOH, and optionally 1-thioglycerol, as described herein. Following dosing, a portion of the animals are immediately euthanized for necropsy evaluation. A “recovery” group is observed for an additional 28 days without dosing, then euthanized for necropsy evaluation. It is appreciated that both monkeys and dogs elicit particular sensitivity to pain, and therefore may be observed for pain response upon administration of the test articles.

[7] = IV administration to monkeys, observation for pain response (Example 10); assay type: in vivo, Cynomolgus monkeys (Macaca fasicularis); settings: IV infusion about 90 minutes, 5, 12.5, 25 mg/kg/d
Description: EXAMPLE 10. Pharmacokinetics (PK) in monkeys following IV administration. […] The plasma level of CEM-101 and toxicokinetics at 0-24 hours is measured (venipuncture, predose, then immediately following completion of infusion at 0, 0.5, 1, 4, 8, and 24 hours). Animal body weight is also periodically measured. […] Total dose volume is 15 mL/kg, and intravenous infusion is carried out over about 90 minutes (10 mL/kg/h) via disposable indwelling catheter into one of the brachial and/or saphenous veins. Vein or vein location is changed at least every seven days. Control animals receive vehicle alone. An illustrative formulation is CEM-101 in the following vehicle comprising or consisting essentially of L(+)-tartaric acid, D-mannitol, SWFI, 1N HaOH, and optionally 1-thioglycerol, as described herein. Following dosing, a portion of the animals are immediately euthanized for necropsy evaluation. A “recovery” group is observed for an additional 28 days without dosing, then euthanized for necropsy evaluation. It is appreciated that both monkeys and dogs elicit particular sensitivity to pain, and therefore may be observed for pain response upon administration of the test articles.

[8] = Excipient compatibility by HS-MCDSC (Example 8); assay type: physicochemical; settings: API-excipient binary pair with CEM-101, 1:1 ratio, 30-80° C.
Description: EXAMPLE 8. Determination of Compatibility of Excipients for Lyophilized Pharmaceutical Composition. Excipient compatibility is assessed using high sensitivity multi-cell differential scanning calorimetry (HS-MCDSC). The high sensitivity multi-cell differential scanning calorimeter is an analytical instrument designed to measure heat capacity and changes in heat capacity as a function of temperature.
Stability (of an individual component) is usually assessed by loading a sample of the material into a cell and measuring the heat-flow as a function of time. The instrument should rapidly detect any degradation processes occurring, and the absence of any heat responses gives confidence that the system under investigation is stable.
A similar approach can be adopted for testing binary mixtures of the active pharmaceutical ingredient (API) and excipients. […] Any unexpected power change recorded in the drug-excipient mixture indicates a possible interaction between the two components.
Calorimetric data were recorded using a high sensitivity MCDSC (CSC Model 4100 MCDSC, USA). Samples were run using API alone (ca. 50 mg), excipients alone (ca. 50 mg) and API-Excipient binary pairs (ca. 25 mg:25 mg, 1:1 ratio). Samples were weighed directly into the cells which were sealed with the metal caps provided and a rubber sealing disc to ensure an air-tight seal. Experiments were programmed as follows:
The MCDSC consists of four cells contained in a loading chamber. The cells 1, 2 and 3 were filled with samples, while the 4th cell is always left empty and run as a blank. Prior to analysis, cells 1 to 3 were run empty with no samples to record the blank results which were then subtracted from subsequent results obtained from samples analysed. Data were recorded every 10 s using the dedicated software package CpCalc. Data analysis was performed using CpCalc and Microsoft Excel.
The calorimeter records all the events occurring in each of the sample cell. The approach adopted here was to calculate the power-time data obtained for the active and excipients alone. The calculated data is then used to create an ‘expected’ theoretical trace as an average of the signals coming from both API and excipients at a mixture of 1:1 ratio.

[9] = Freeze drying, visual observation of the cakes (Example 9); assay type: physicochemical; settings: for Visual observation of the cake: excipient at its maximum concentration in CEM-101 IV solution, frozen -25° C. 2 h, freeze dried 24 h
Description: 1 mL of CEM-101 IV solution was dispensed into in a clear glass vial, followed by the careful addition of small amounts of the excipient under investigation (either 50 or 100 mg). The solution in the vials were mixed using a vortex mixer and sonicated until a clear solution was observed. The final data is shown below, and reflects the maximum possible amount of each excipient used in the freeze dried formulations. Subsequently, all clear vials were frozen at −25° C. for 2 h. The caps were then removed and the vials were covered with a small tissue paper and placed in the freeze drier for 24 h (in the dark). The cakes were then inspected and the following visual observations detailed in the table below were made.
Based on the results above, three excipients with no interaction with the API were selected and solutions containing various ratio combinations of the API and excipient were prepared. These solutions were then frozen at −25° C., then lyophilised for 24 h, in the dark. The resultant cakes were then examined visually to determine the integrity of the plugs.

[10] = Storage of lyophilized cakes at 5° C., 25° C./60% RH and 40° C./75% RH; assay type: physicochemical; settings: 7, 13 and 28 days
Description: Cakes were stored at 5° C., 25° C./60% RH and 40° C./75% RH. Samples were evaluated at 7, 13 and 28 days.

[11] = Solubility of each excipient in CEM-101 IV solution (Example 9); assay type: physicochemical; settings: in 1 mL CEM-101 IV solution (50 mg/mL)
Description: EXAMPLE 9. Characterization of properties of excipients for freeze drying to prepare lyophilized pharmaceutical composition. […] The solution in the vials were mixed using a vortex mixer and sonicated until a clear solution was observed. […] The caps were then removed and the vials were covered with a small tissue paper and placed in the freeze drier for 24 h (in the dark).

Molecule: CC[C@H]1OC(=O)[C@@](C)(F)C(=O)[C@H](C)[C@@H](O[C@@H]2O[C@H](C)C[C@H](N(C)C)[C@H]2O)[C@@](C)(OC)C[C@@H](C)C(=O)[C@H](C)[C@H]2N(CCCCn3cc(-c4cccc(N)c4)nn3)C(=O)O[C@]12C [CEM-101]
- QT effects / QT prolongation [1]: do not cause QT prologation; also recorded: low QT effects or no QT effects
- Concentration of clear solution by HPLC ([2]; 51.38 mg CEM-101 in 1 mL 60 mM tartaric acid pH 2.16, mixed overnight (5% initial formulation)): 50400 µg/mL
- Concentration by HPLC after addition of 0.9% w/v NaCl ([2]; 5% NaCl formulation, clear on mixing for an hour): 53000 µg/mL
- Concentration by HPLC after addition of 0.9% w/v NaCl ([2]; 8% NaCl formulation, white lump formed, mixed approx. 2 hours): 3900 µg/mL
- solubility ([2]; aqueous buffer, thermodynamic from solid, approx. 90 mg CEM-101 in 1 mL 60 mM tartaric acid pH 2.16, mixed overnight (8% initial formulation), read-out: Saturated solubility by HPLC): 83 mg/mL (≈ 98.2 mM)
- pH of resultant solution ([3]; CEM-101 in 1M Ascorbic Acid (sample 17)): 1.93
- pH of resultant solution ([3]; CEM-101 in 1M Methane sulphonic Acid (sample 16)): 0.03
- pH of resultant solution ([3]; CEM-101 in 1M Tartaric Acid (sample 19)): 1.27
- solubility at 72 h ([3]; pH 0.03, simulated gastric fluid, vehicle 1M Methane sulphonic Acid (sample 16)): 100 mg/mL (≈ 118 mM)
- solubility at 72 h ([3]; pH 1.27, simulated gastric fluid, vehicle 1M Tartaric Acid (sample 19)): 100 mg/mL (≈ 118 mM)
- solubility at 72 h ([3]; pH 1.93, simulated gastric fluid, vehicle 1M Ascorbic Acid (sample 17)): 100 mg/mL (≈ 118 mM)
- solubility at 72 h ([3]; simulated gastric fluid, vehicle 1M Hydrochloric Acid (sample 15)): 100 mg/mL (≈ 118 mM)
- Cardiac tissue levels / accumulation [4]: do not accumulate in cardiac tissue; also recorded: do not exhibit high cardiac tissue levels
- Activity against azithromycin-resistant strains [5]: active
- Potency relative to azithromycin ([5]; more potent than azithromycin): 8-16 times
- Pain response upon IV administration [6]: no reaction by the animal was observed
- Pain response upon IV administration [7]: no reaction by the animal was observed

Molecule: NCC(=O)O [Glycine]
- MC-DSC Results (No Interaction/Interaction) [8]: No
- MC-DSC Results (No Interaction/Interaction) ([8]; listed as glycine): compatible
- Visual observation of lyophilizate ([9]; API:Excipient Ratio 1:1): Good solid cake- with uniform
- Visual observation of lyophilizate ([9]; API:Excipient Ratio 1:2): Good solid cake- with uniform
- Visual observation of lyophilizate ([9]; API:Excipient Ratio 1:3): Good solid cake- with uniform
- Visual observation of lyophilizate ([9]; API:Excipient Ratio 1:4): Good solid cake- with uniform
- Visual observation of the cake [9]: Good solid cake-
- Cake colour on storage [10]: remained white

Molecule: OC[C@@H](O)[C@@H](O)[C@H](O)[C@H](O)CO [Mannitol]
- Conc. (mg/mL), maximum possible amount of excipient giving a clear solution [11]: 200 mg/mL
- MC-DSC Results (No Interaction/Interaction) [8]: No
- MC-DSC Results (No Interaction/Interaction) ([8]; listed as mannitol): compatible
- Visual observation of lyophilizate ([9]; API:Excipient Ratio 1:1): Good solid cake- with uniform
- Visual observation of lyophilizate ([9]; API:Excipient Ratio 1:2): Good solid cake- with uniform
- Visual observation of lyophilizate ([9]; API:Excipient Ratio 1:3): Good solid cake- with uniform
- Visual observation of lyophilizate ([9]; API:Excipient Ratio 1:4): Good solid cake- with uniform
- Visual observation of the cake [9]: Good solid cake-
- Cake colour on storage [10]: remained white

Molecule: OC[C@H]1O[C@@](CO)(O[C@H]2O[C@H](CO)[C@@H](O)[C@H](O)[C@H]2O)[C@@H](O)[C@@H]1O [Sucrose]
- MC-DSC Results (No Interaction/Interaction) [8]: No
- MC-DSC Results (No Interaction/Interaction) ([8]; listed as sucrose): compatible
- Visual observation of lyophilizate ([9]; API:Excipient Ratio 1:1): Good solid cake- with uniform
- Visual observation of lyophilizate ([9]; API:Excipient Ratio 1:2): Good solid cake- with uniform
- Visual observation of lyophilizate ([9]; API:Excipient Ratio 1:3): Good solid cake- with uniform
- Visual observation of lyophilizate ([9]; API:Excipient Ratio 1:4): Good solid cake- with uniform
- Cake colour on storage [10]: Some cake yellowing

Molecule: OC[C@H]1O[C@H](O[C@H]2O[C@H](CO)[C@@H](O)[C@H](O)[C@H]2O)[C@H](O)[C@@H](O)[C@@H]1O [Trehalose]
- Conc. (mg/mL), maximum possible amount of excipient giving a clear solution [11]: 700 mg/mL
- MC-DSC Results (No Interaction/Interaction) [8]: Interaction
- Visual observation of the cake [9]: Poor cake-puffing

Molecule: Isomalt
- Conc. (mg/mL), maximum possible amount of excipient giving a clear solution [11]: 600 mg/mL
- MC-DSC Results (No Interaction/Interaction) [8]: Interaction
- Visual observation of the cake [9]: Good solid cake-
